This note sets out measurements from patent publication EP4775582A1, “MACROCYCLIC COMPOUND AND ANTIBODY-DRUG CONJUGATE THEREOF” (Genfleet Therapeutics (Shanghai) Inc., priority 2023, dated 2025).

Data set [1] in a line: Human liver microsomal stability experiment. It is filed as in vitro ADME. The note with it: human liver microsomes; for CLint scaled: 45 mg/g, 20.7 g/kg scaling. On the procedure: This experiment was intended to investigate the metabolic stability of the test compounds in human liver microsomes. The materials used in the experiment included 10 mM solutions of the test compounds and the control sample, human liver microsomes, and reduced nicotinamide adenine dinucleotide phosphate (NADPH) powder. In the experiment, a 100 mM potassium phosphate buffer was used as the buffer system.
The liver microsome working solution was prepared by diluting the liver microsome stock solution to 0.75 mg/mL using the 100 mM potassium phosphate buffer. Then, 5 µL of the 10 mM stock solution of the test compound was taken, and 195 µL of methanol was added. The mixture was well mixed to prepare a working solution A with a concentration of 0.25 mM. Subsequently, the working solution A was diluted to 1.5 µM using the liver microsome working solution to prepare a compound-liver microsome mixed solution. Additionally, NADPH powder was dissolved in 100 mM potassium phosphate buffer to prepare a 6 mM NADPH solution. The compound-liver microsome mixed solution was dispensed into a 96-well plate at 30 µL/well, with labeled time points of 0 min, 30 min, and 60 min. For 0-min samples, 180 µL of acetonitrile containing 100 ng/mL tolbutamide and 15 µL of the NADPH solution were added directly. The 96-well plate and the NADPH solution were then preheated under a 37 °C water bath for 5 min. After the preheating, 15 µL of the NADPH solution was added to each of the 30-min and 60-min sample wells. The plate was gently shaken for mixing and then incubated under the 37 °C water bath for the corresponding time. After the incubation was completed, 180 µL of acetonitrile containing 100 ng/mL tolbutamide was added to each sample well. The plate was sealed with a sealing film, shaken for 10 min (800 rpm/min), and then centrifuged for 15 min (4000 rpm). After the centrifugation, 50 µL of the supernatant was taken and added to a 96-well plate containing 150 µL of deionized water, and then the plate was sealed and shaken for 10 min (800 rpm) for uniform mixing. Subsequently, sample analysis was performed using liquid chromatography-tandem mass spectrometry (LC-MS/MS). […] For humans, the microsome protein-to-liver weight ratio was 45 mg/g, and the liver-to-body weight ratio was 20.7 g/kg.
In general terms: Liver microsomes are vesicles of endoplasmic reticulum, rich in cytochrome P450 enzymes.

Data set [2] is described as follows: Solubility experiment (HPLC, external standard). It is filed as physicochemical. The note with it: 37 °C, 24 h. Summed up: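 Solid compound (about 1 mg per 1 mL medium) was shaken at 37 °C for 24 h in pH 1.2, 4.5 or 7.4 media, then centrifuged and the supernatant diluted with acetonitrile/water 50/50. Concentration in μg/mL was found by HPLC against an external standard prepared from a DMSO stock.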

Data set [3] concerns the target KRAS WT-cRAF (Homo sapiens, UniProt P01116+P62937). Description: Assay for binding of KRAS to cRAF (HTRF, with Cyclophilin A), KRAS WT. In general terms: Time-resolved FRET reads energy transfer from a long-lived donor to a nearby acceptor.
Method: (§3) The plate was centrifuged at 1000 rpm for 1 min and then incubated in the thermostatic incubator at 20 °C for 30 min. […] The plate was centrifuged at 1000 rpm for 1 min and then incubated in the thermostatic incubator at 20 °C for 60 min. […] The working solution was added to the aforementioned assay plate at 5 µL/well. The plate was centrifuged at 1000 rpm for 1 min and then incubated in the thermostatic incubator at 20 °C for 60 min.
The target in data set [4] is KRAS G12V-cRAF (Homo sapiens, UniProt P01116+P62937, G12V). Description: Assay for binding of KRAS to cRAF (HTRF, with Cyclophilin A), KRAS G12V.
Method: as §3
Data set [5] deals with H441 p-ERK. The data set is described as follows: Cell p-ERK assay (HTRF), NCI-H441 cells. Particulars: NCI-H441 cells (KRAS G12V), 3 h incubation. It is filed as cell-based, human. Summed up:
(§1)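 Phospho-ERK (T202/Y204) was measured by HTRF in lysates after 3 h compound treatment at 37 °C. Cells had been plated the previous day at 20000 per well for NCI-H441 and 10000 per well for AsPC-1. Four-parameter dose-response fitting of % inhibition gave IC50 values.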

Data set [6] relates to AsPC-1 p-ERK. Description: Cell p-ERK assay (HTRF), AsPC-1 cells. In kind it is cell-based, human. The note with it: AsPC-1 cells (KRAS G12D), 3 h incubation, read-out: AsPC-1 p-ERK IC50. The method in brief:
as §1

Data set [7] concerns NCI-H441 cells. Description: 3D cell proliferation assay (CellTiter Glo-3D), NCI-H441. In kind it is cell-based, human. The note with it: NCI-H441 cells (KRAS G12V), 2% FBS, 5 days, read-out: H441 AP IC50. The method in brief:
(§2)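 IC50 values come from four-parameter fits of inhibition rate against log compound concentration, using CellTiter-Glo luminescence read after 5 days' exposure. AsPC-1 and NCI-H441 were plated at 800 cells per well in low-serum (2% FBS) medium. Compound was dosed the day after seeding, with incubation at 37 °C, 5% CO2.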
On the technique in general: Cellular ATP, detected with luciferase, serves as a proxy for viable cell number.

The subject of data set [8] is AsPC-1 cells. Description: 3D cell proliferation assay (CellTiter Glo-3D), AsPC-1. In kind it is cell-based, human. Particulars: AsPC-1 cells (KRAS G12D), 3D, 2% FBS, 5 days, read-out: AsPC-1 AP IC50. Summed up:
as §2

Setting [9] is: read-out: KRAS WT-cRAF binding assay, GPPNP-KRAS WT, IC50 values.
Setting [10] is: read-out: KRAS G12V-cRAF binding assay, GPPNP-KRAS G12V, IC50 values.

SMILES strings stand for the structures. Values after ≈ are worked out from the molar mass of the structure shown. Read-outs that look alike come from different tables or passages of the source.

KRAS WT-cRAF, sequence (P01116 1-188 isoform P01116-2): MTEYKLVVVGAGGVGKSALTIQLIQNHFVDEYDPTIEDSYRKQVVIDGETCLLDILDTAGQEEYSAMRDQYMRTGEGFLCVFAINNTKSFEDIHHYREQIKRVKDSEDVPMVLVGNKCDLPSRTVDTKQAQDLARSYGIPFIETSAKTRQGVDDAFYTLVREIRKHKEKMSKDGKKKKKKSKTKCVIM
KRAS WT-cRAF, sequence (P62937 whole entry): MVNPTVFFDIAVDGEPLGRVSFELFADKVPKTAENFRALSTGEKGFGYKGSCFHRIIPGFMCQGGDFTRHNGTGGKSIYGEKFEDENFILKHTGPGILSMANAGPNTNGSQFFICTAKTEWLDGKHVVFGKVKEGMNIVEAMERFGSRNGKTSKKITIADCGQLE
KRAS G12V-cRAF, sequence (P01116 1-188 isoform P01116-2 G12V): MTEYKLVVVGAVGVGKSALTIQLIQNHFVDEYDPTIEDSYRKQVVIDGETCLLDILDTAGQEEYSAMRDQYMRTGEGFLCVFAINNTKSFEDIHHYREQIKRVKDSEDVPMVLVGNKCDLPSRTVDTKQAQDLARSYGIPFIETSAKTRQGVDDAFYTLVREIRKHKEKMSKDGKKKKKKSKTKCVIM
KRAS G12V-cRAF, sequence (P62937 whole entry): as the sequence (P62937 whole entry) above

As for `CCn1c(-c2cc(C#CCN3CCN(C(C)=O)CC3)cnc2[C@H](C)OC)c2c3cc(ccc31)-c1csc(n1)C[C@H](NC(=O)[C@H]1[C@H](C)[C@@H]1C)C(=O)N1CCC[C@H](N1)C(=O)OCC(C)(C)C2` (atropisomer, axis not shown) [Control compound 2], the half-life in data set [1] (NADPH, 37 °C) was found to be 9.8 min. Further, in data set [1], the CLint scaled came to 164 mL/min/kg. The same molecule registered a solubility at 24 h in data set [2] (ph 7.4 medium, pH 7.4, pH 7.4 medium) of 1.5 µg/mL (≈ 1.68 µM). The IC50 in data set [3] (setting [9]) stood at 48.6 nM; in data set [4] (setting [10]), 10.9 nM.
`CCn1c(-c2cc(C#CCN3CCC(C#N)(CN)CC3)cnc2[C@H](C)OC)c2c3cc(ccc31)-c1csc(n1)C[C@H](NC(=O)[C@H]1[C@@H]3COC[C@@H]31)C(=O)N1CCC[C@H](N1)C(=O)OCC(C)(C)C2` (atropisomer, axis not shown; (Ra)) [Compound Z52, (1R,5S,6r)-N-((6^3S,4S,Z)-(Ra)-1^2-(5-(3-(4-(aminomethyl)-4-cyanopiperidin-1-yl)prop-1-yn-1-yl)-2-((S)-1-methoxyethyl)-pyridin-3-yl)-1^1-ethyl-10,10-dimethyl-5,7-dioxo-6^1,6^2,6^3,6^4,6^5,6^6-hexahydro-1^1H-8-oxa-2(4,2)-thiazola-1(5,3)-indola-6(1,3)-pyridazinacycloundecaphane-4-yl)-3-oxabicyclo[3.1.0]hexane-6-carboxamide]: the IC50 in data set [5] turned out to be 0.13 nM; in data set [6], 0.06 nM; in data set [7], 0.17 nM; in data set [8], 0.08 nM; in data set [3] (setting [9]), 16.5 nM; in data set [4] (setting [10]), 13.3 nM. Besides, the “T1/2” value in data set [1] (NADPH, 37 °C) worked out at 47.3 min.
On to `CCn1c(-c2cc(C#CCN3CCC(C#N)CC3)cnc2C(C)OC)c2c3cc(ccc31)-c1csc(n1)CC(NC(=O)C1C3COCC31)C(=O)N1CCCC(N1)C(=O)OCC(C)(C)C2` (atropisomer, axis not shown; (Ra)) [Compound Z56, (1R,5S,6r)-N-((6^3S,4S,Z)-(Ra)-1^2-(5-(3-(4-cyanopiperidin-1-yl)prop-1-yn-1-yl)-2-((S)-1-methoxyethyl)-pyridin-3-yl)-1^1-ethyl-10,10-dimethyl-5,7-dioxo-6^1,6^2,6^3,6^4,6^5,6^6-hexahydro-1^1H-8-oxa-2(4,2)-thiazola-1(5,3)-indola-6(1,3)-pyridazinacycloundecaphane-4-yl)-3-oxabicyclo[3.1.0]hexane-6-carboxamide], for which the IC50 in data set [5] (Homo sapiens) turned out to be 0.12 nM; in data set [6] (Homo sapiens, ASPC1), 0.07 nM; in data set [7] (Homo sapiens, 120 h), 0.14 nM; in data set [8] (Homo sapiens, ASPC1, 120 h), 0.09 nM; in data set [3] (KRAS WT-cRAF binding assay(nM), GPPNP-KRAS WT, IC50 values), 13.9 nM; in data set [4] (KRAS G12V-cRAF binding assay(nM), GPPNP-KRAS G12V, IC50 values), 11.9 nM. In data set [1] (NADPH, 37 °C), this molecule came in with a half-life at 1 µM of 23.3 min. The molecule further had a CLint scaled in data set [1] of 68.9 mL/min/kg.
`CCn1c(-c2cc(C#CCN3CCC(C#N)(CN)CC3)cnc2[C@H](C)OC)c2c3cc(ccc31)-c1coc(n1)C[C@H](NC(=O)[C@H]1[C@@H]3COC[C@@H]31)C(=O)N1CCC[C@H](N1)C(=O)OCC(C)(C)C2` (atropisomer, axis not shown; (Ra)) [Compound Z166, (1R,5S,6r)-N-((6^3S,4S,Z)-(Ra)-1^2-(5-(3-(4-(aminomethyl)-4-cyanopiperidin-1-yl)prop-1-yn-1-yl)-2-((S)-1-methoxyethyl)pyridin-3-yl)-1^1-ethyl-10,10-dimethyl-5,7-dioxo-6^1,6^2,6^3,6^4,6^5,6^6-hexahydro-1^1H-8-oxa-2(4,2)-oxazola-1(5,3)-indola-6(1,3)-pyridazinacycloundecaphane-4-yl)-3-oxabicyclo[3.1.0]hexane-6-carboxamide]: the IC50 turned out to be 0.2 nM in data set [5]; 0.1 nM in data set [6]; 0.37 nM in data set [7]; 0.12 nM in data set [8]; 38.9 nM in data set [3] (setting [9]); 12.9 nM in data set [4] (setting [10]). In data set [1] (NADPH, 37 °C), the “T1/2” value amounted to 19.6 min. Besides, the “Solubility at pH 7.4 (µg/mL)” value in data set [2] (pH 7.4 medium) stood at 26.76 µg/mL.

The half-life is how long it takes for the measured level to halve. Lower therefore signals rapid decline. What is called CLint scaled is the capacity of the preparation to metabolise the compound, expressed as a volume cleared per time. What is called solubility is the concentration that dissolves in the medium under given conditions. Low readings indicate little dissolved substance, high ones much dissolved substance. For orientation: IC50 means the point on the concentration scale where inhibition reaches its midpoint. What is called Solubility is how much of the substance goes into solution per volume.
